These results are taken from patent publication EP0468441A1, “Use of particular compounds for manufacture of pharmaceutical formulations for metabolic treatments” (Prendergast, Patrick Thomas, priority 1990, dated 1992).

One data set deals with HIV-RF. The experiment in a line: In-vitro anti-viral test on C81-66 cells infected with HIV-RF (wells positive for HIV p24). The data set is classed as cell-based. Conditions: no pretreatment, number of wells positive for HIV p24 out of two replicates. The text has this:
NOTE: • 1. The results are expressed as the number of wells positive for HIV p24 (out of the two replicates at each multiplicity of infection). Thus, 2 means that both wells contained viral antigen, while 0 means no virus was present. • 2. Pretreatment means that the antibodies to Human Alpha feto protein were present during HIV virus absorption as well as afterwards. • 3. An error in diluting the antibodies was made, so that following the first three concentrations (6,2, and 0.6 percent), an extra 10 fold dilution was made, so that the next dilution was 0.02% rather than 0.2%.

The target in a further data set is T1, HIV p24 peptide (Human immunodeficiency virus type 1 group M subtype B, UniProt P04591).
T1 construct: Peptide p24, 1 mg in 200 µl of an aqueous solution of acetic acid
The experiment in a line: Binding of 3H arachidonic acid (C20:4) to peptide, free ligand removed with Lipidex 1000. Conditions: 270.000 DPM 3H C20:4, overnight at 4° C, 10 mM potassium phosphate buffer pH 7.4. The protocol: (§1) Solubilisation of the peptides: • : Peptide gp120, 1 mg in 180 µl of an aqueous solution of acetic acid and 20 µl acetonitrile • : Peptide p24, 1 mg in 200 µl of an aqueous solution of acetic acid
(§2) Incubation of 50 […] or 100 µg of each peptide or 10 µg of pure rat Alpha Feto Protein with 270.000 DPM ^3H C20:4 (SA 198 Ci/mmol), overnight at 4° C, in 0.5 ml of 10 mM potassium phosphate buffer 10mM pH 7.4.
(§3) Binding of Arachidonic Acid to peptides or protein measured after separation of the free ligand from the bound one using Lipidex 1000 (100 µl Lipidex solution 10 minutes at 4°C. The free ligand is bound to Lipidex 1000, the bound ligand to peptides and proteins remains in the supernatant after centrifugation.

The next data set has as its target T2, HIV gp120 peptide (Human immunodeficiency virus type 1 group M subtype B, UniProt P04578).
T2 construct: Peptide gp120, 1 mg in 180 µl of an aqueous solution of acetic acid and 20 µl acetonitrile
Described as above. The method, then: as §1, §2, §3

Data set [1] is described as follows: Solubility of 3H C20:4 before and after addition of peptides or protein. The data set is classed as physicochemical. The method, then: as §2
Solubility of ^3H C20:4 tested before and after addition of peptides or protein: […]

For data set [2], the target named is T3, pure rat Alpha Feto Protein (Rattus norvegicus, UniProt P02773).
T3 sequence (P02773 25-611): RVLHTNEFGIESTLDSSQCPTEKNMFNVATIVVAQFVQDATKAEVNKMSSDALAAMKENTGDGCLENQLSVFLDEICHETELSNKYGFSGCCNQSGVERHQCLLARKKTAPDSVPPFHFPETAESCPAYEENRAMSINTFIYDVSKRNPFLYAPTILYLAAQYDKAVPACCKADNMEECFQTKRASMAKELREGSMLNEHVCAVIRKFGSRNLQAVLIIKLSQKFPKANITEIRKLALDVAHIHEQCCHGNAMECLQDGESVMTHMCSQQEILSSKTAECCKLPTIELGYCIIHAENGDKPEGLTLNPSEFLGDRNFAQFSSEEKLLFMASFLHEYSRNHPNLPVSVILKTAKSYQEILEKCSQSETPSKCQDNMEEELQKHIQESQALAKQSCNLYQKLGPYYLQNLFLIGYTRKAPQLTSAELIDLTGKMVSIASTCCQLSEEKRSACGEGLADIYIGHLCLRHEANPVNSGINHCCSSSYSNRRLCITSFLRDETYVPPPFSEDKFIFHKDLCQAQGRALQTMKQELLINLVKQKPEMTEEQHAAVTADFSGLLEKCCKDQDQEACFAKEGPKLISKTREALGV
The experiment in a line: Binding of 3H arachidonic acid (C20:4) to protein, free ligand removed with Lipidex 1000. The conditions noted are these: 10 µg pure rat AFP; 270.000 DPM 3H C20:4, overnight at 4° C, 10 mM potassium phosphate buffer pH 7.4. The method, then:
as §2, §3

Each structure is given as a SMILES string.

T2 sequence (P04578 247-267): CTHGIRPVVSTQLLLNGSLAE

With `Cc1cn([C@H]2C[C@H](N=[N+]=[N-])[C@@H](CO)O2)c(=O)[nH]c1=O` [AZT], in the data set with HIV-RF (10 μM), the “Virus Replication at a.m.i. (log) of: -1” value is given as 2, the “Virus Replication at a.m.i. (log) of: -2” value turned out to be 1, the “Virus Replication at a.m.i. (log) of: -3” value is reported as 0 and the “Virus Replication at a.m.i. (log) of: -4” value is 0. In addition, in the data set with HIV-RF (10 μM), the “Virus Replication at a.m.i. (log) of: -5” value amounted to 0 and the “Virus Replication at a.m.i. (log) of: -6” value is on record as 0. Further, in the data set with HIV-RF (Conc. 0.01 (μM)), the “Virus Replication at a.m.i. (log) of: -1” value worked out at 2, the “Virus Replication at a.m.i. (log) of: -2” value came to 2, the “Virus Replication at a.m.i. (log) of: -3” value came out at 2 and the “Virus Replication at a.m.i. (log) of: -4” value is 2. In the data set on HIV-RF (Conc. 0.01 (μM)), the “Virus Replication at a.m.i. (log) of: -5” value worked out at 1 and the “Virus Replication at a.m.i. (log) of: -6” value is 0. Besides, in the data set on HIV-RF (Conc. 0.1 (μM)), the “Virus Replication at a.m.i. (log) of: -1” value is on record as 2, the “Virus Replication at a.m.i. (log) of: -2” value is given as 2, the “Virus Replication at a.m.i. (log) of: -3” value turned out to be 2 and the “Virus Replication at a.m.i. (log) of: -4” value is recorded as 2. Besides, in the data set on HIV-RF (Conc. 0.1 (μM)), the “Virus Replication at a.m.i. (log) of: -5” value turned out to be 0 and the “Virus Replication at a.m.i. (log) of: -6” value turned out to be 0. Further, in the data set with HIV-RF (Conc. 1 (μM)), the “Virus Replication at a.m.i. (log) of: -1” value came to 2, the “Virus Replication at a.m.i. (log) of: -2” value was found to be 2, the “Virus Replication at a.m.i. (log) of: -3” value was found to be 2 and the “Virus Replication at a.m.i. (log) of: -4” value was determined as 1. For the same compound, in the data set with HIV-RF (Conc. 1 (μM)), the “Virus Replication at a.m.i. (log) of: -5” value was 2 and the “Virus Replication at a.m.i. (log) of: -6” value is on record as 2.
As for `CCCCC/C=C\C/C=C\C/C=C\C/C=C\CCCC(=O)O` [^3H C20:4, Arachidonic Acid], the “Binding of ^3H C20:4 to peptides or protein after Lipidex 1000 treatment” value at HIV p24 peptide is given as 0.8 x 10^-6 DPM/mg; on HIV gp120 peptide (270.000 DPM 3H C20:4, overnight at 4° C, 10 mM potassium phosphate buffer pH 7.4), 1.2 x 10^-6 DPM/mg; in data set [2], 14.1 x 10^-6 DPM/mg. For the same compound, the “binding of C20:4” value at HIV gp120 peptide (conclusion in words) is “clear binding”. The “Solubility of ^3H C20:4” value is given as 100% in data set [1] (in presence of 10 µg pure rat AFP); 65% in data set [1] (in presence of gp120: 50µg); 90% in data set [1] (in presence of gp120: 100µg); 23% in data set [1] (in presence of p24 50µg); 30% in data set [1] (in presence of p24 100µg); 70% in data set [1] (without peptide or protein). Moreover, the “insolubility of the Arachidonic Acid” value in data set [1] (in the presence of p24 peptide, conclusion in words) is recorded as “important insolubility”.
